Data set [1] concerns the target T1, Phosphodiesterase 4 (Homo sapiens, UniProt P27815+Q08499+Q07343+Q08493). Nature of the data set: Percent inhibition of human neutrophil phosphodiesterase 4 at 10e-7 M. It counts as protein assay.
Data set [2] deals with T1, Phosphodiesterase 4. In words: Percent inhibition of human Phosphodiesterase 4 at 10e-7 M. The data set is classed as protein assay.
Data set [3] addresses T1, Phosphodiesterase 4. In words: Inhibition of rolipram binding to PDE4 at 10e-5 M. It counts as protein assay.
Data set [4] relates to Canis familiaris. Nature of the data set: Emetic effect in dog after intravenous administration. It counts as functional. As to conditions: Canis lupus familiaris.
For data set [5], the system named is Cavia porcellus. In words: Percent inhibition of eosinophil infiltration in the guinea pig at 30 uM/kg ip. It counts as functional.
Data set [6] can be described thus: Oral bioavailability in rat. To be noted: in vivo. It counts as ADME, organism-based.
The target of data set [7] is T1, Phosphodiesterase 4.
Description: Inhibition of human Phosphodiesterase 4
Data set [8] is filed under the species Rattus norvegicus. Nature of the data set: Increased acid secretion in the isolated whole rat stomach. It counts as functional.
For data set [9], the species on record is Rattus norvegicus. Nature of the data set: In vitro and metabolic stability was determined. It counts as ADME.
Data set [10] concerns the target T1, Phosphodiesterase 4. In words: Inhibition of rolipram binding to PDE4. It counts as protein assay.
Data set [11] is filed under the species Homo sapiens. In words: Inhibition of TNF-alpha synthesis in human monocytes. It counts as functional, organism-based.
Data set [12] addresses T1, Phosphodiesterase 4. Nature of the data set: Inhibition of human neutrophil phosphodiesterase 4. The data set is classed as protein assay.
Data set [13] deals with T1, Phosphodiesterase 4. In words: Inhibition of human neutrophil Phosphodiesterase 4. It counts as protein assay.
Data set [14] has as its target T1, Phosphodiesterase 4. Nature of the data set: Inhibition of rolipram binding to PDE4 at 10e-6 M. It counts as protein assay.
The species entered for data set [15] is Rattus norvegicus. Nature of the data set: In vitro metabolic stability in rat hepatocytes. It counts as ADME, Hepatocyte.
Data set [16] has as its system Cavia porcellus. Nature of the data set: Percent inhibition of eosinophil infiltration in the guinea pig at 30 uM/kg (ip). It counts as functional.
Data set [17] has as its system Canis familiaris. In words: Emetic effect in dog on intravenous administration. To be noted: Canis lupus familiaris. The data set is classed as functional.

We go through 19 compounds from ChEMBL document CHEMBL1134046, “Phthalazine PDE4 inhibitors. Part 2: the synthesis and biological evaluation of 6-methoxy-1,4-disubstituted derivatives” (Bioorg Med Chem Lett, 2001).

The structures appear in SMILES notation.

In the case of `COc1ccc2c(Cc3c(Cl)cncc3Cl)nnc(-n3ccnc3)c2c1`, the Inhibition in data set [1] is on record as 17%.

Consider `CCCNc1nnc(Cc2c(Cl)cncc2Cl)c2ccc(OC)cc12`, for which the Inhibition in data set [2] worked out at 19%.

The compound `CCc1nnc(Cc2c(Cl)cncc2Cl)c2ccc(OC)cc12` yielded an Inhibition in data set [2] of 23%.

Consider `COc1ccc2c(Cc3c(Cl)cncc3Cl)nnc(CCCCc3ccccc3)c2c1`, for which the Inhibition in [2] was 19%.

For `COc1ccc2c(Cc3c(Cl)cncc3Cl)nncc2c1`, in [3], the Inhibition turned out to be 42%.

`COc1ccc2c(Cc3c(Cl)cncc3Cl)nnc(-c3ccccc3)c2c1` had an ED50 in [4] of more than 30 µmol/kg. The compound further came in with an Inhibition in [5] of 34%. In data set [6], the bioavailability turned out to be 27%. The figures for the IC50 in data set [7], in data set [8] and in data set [11] were 37 nM, 4000 nM and 46 nM, respectively. The “Met. stab. Cl. int” value in data set [9] is on record as 5.8 ul min-1 (10e6*cells)-1. In data set [10], the Ki stood at 271 nM.

With `COc1ccc2c(Cc3c(Cl)cncc3Cl)nnc(Oc3ccccc3)c2c1`, the IC50 in data set [12] is 132 nM; in [11] it was 166 nM. The compound further came in with a Ki in data set [10] of 436 nM.

On to `C#Cc1nnc(Cc2c(Cl)cncc2Cl)c2ccc(OC)cc12`, for which the IC50 amounted to 93 nM in data set [7] and 87 nM in [11]. This compound displayed a Ki in data set [10] of 204 nM.

In turn, `COc1ccc2c(Cc3c(Cl)cncc3Cl)nnc(N(C)C)c2c1` had an Inhibition in [2] of 39%.

In data set [2], `COc1ccc2c(Cc3c(Cl)cncc3Cl)nnc(N3CCN(C)CC3)c2c1` yielded an Inhibition of 16%.

In the case of `COc1ccc2c(Cc3c(Cl)cncc3Cl)nnc(N3CCCC3=O)c2c1`, the Inhibition in data set [1] is 6%.

With `COc1ccc2c(Cc3c(Cl)cncc3Cl)nnc(N3CCOCC3)c2c1`, the results for the concentration for half-maximal inhibition (IC50) in [13] and in data set [11] were 132 nM and 62 nM, respectively. The compound also registered a Ki in data set [10] of 452 nM.

In the case of `COc1ccc2c(Cc3c(Cl)cncc3Cl)nncc2c1OC1CCCC1`, the IC50 in data set [11] was 224 nM.

As for `COc1ccc2c(Cc3c(Cl)cncc3Cl)nnc(-c3nccs3)c2c1`, the IC50 in data set [7] came to 14 nM; in [11] it was 8 nM. In data set [10], this compound had a Ki of 34 nM.

On to `COc1ccc2c(Cc3c(Cl)cncc3Cl)nnc(N3CCCC3)c2c1`, for which the half-inhibitory concentration (IC50) in data set [7] worked out at 38 nM; in data set [11], 9 nM. The compound further registered a Ki in data set [10] of 89 nM.

Take `COc1ccc2c(Cc3c(Cl)c[n+]([O-])cc3Cl)nnc(-c3nccs3)c2c1`: the IC50 in [7] was determined as 4 nM; in [11], 3 nM. In [10], this compound returned a Ki of 17 nM.

Compound `COc1ccc2c(Cc3c(Cl)cncc3Cl)nnc(C#Cc3ccccc3)c2c1` showed an Inhibition in data set [14] of 21%. Moreover, the half-inhibitory concentration (IC50) in data set [7] was found to be 48 nM; in data set [11] it was 273 nM.

`COc1ccc2c(Cc3c(Cl)cncc3Cl)nnc(-n3cncn3)c2c1` gave a median effective dose (ED50) in [4] of more than 30 µmol/kg. The “Met. stab. Cl. int” value in [15] is recorded as 1.5 ul min-1 (10e6*cells)-1. In data set [6], this compound came in with a bioavailability of 27%. Also, the IC50 was 72 nM in data set [12], more than 30000 nM in [8] and 72 nM in data set [11]. For the same compound, the Inhibition in [8] worked out at 33%; in [16], 37%. Further, in data set [10], the affinity, expressed as Ki, was 241 nM.

Consider `COc1ccc([C@]2(C#N)CC[C@@H](C(=O)O)CC2)cc1OC1CCCC1` [CILOMILAST], for which the “Met. stab. Cl. int” value in [15] was 9.2 ul min-1 (10e6*cells)-1. Further, in data set [17], it took a dose of 10 µmol/kg to reach the 50% effect level (ED50). Besides, the bioavailability in [6] turned out to be 35%. Further, the IC50 in data set [8] is 1000 nM; in data set [11] it was 158 nM. Besides, the Inhibition in data set [16] stood at 17%.
